Results as given in article PMC9499467, “Phenanthroindolizidine Alkaloids Isolated from Tylophora ovata as Potent Inhibitors of Inflammation, Spheroid Growth, and Invasion of Triple-Negative Breast Cancer” (International Journal of Molecular Sciences, 2022).

Experiments:
NFκB = NFκB inhibition assay (24 h), NFκB-dependent firefly luciferase reporter; format: cell-based; details: Homo sapiens, 24 h, read-out: NFκB Inhibition 24 h IC50
Description: On day 1, 3 × 10^4 NFκB MDA-MB-231-firefly cells were seeded into white 96 well plates (Greiner; #655098). On day 2, the medium was replaced with starvation medium and the cells were pre-incubated for 20 min with either 100 µL of DMSO (Roth; #A994.1) alone at maximal 0.1%, or with the final concentration of the diluted compounds (Table 3). To activate NFκB signaling, cells were stimulated with 20 ng/mL TNFα (Peprotech, Hamburg, Germany; #300-01A). Cell lysis was performed in 20 µL 1× cell lysis buffer according to the manufacturer’s instruction for the Luciferase Assay System (Promega #E1500). NFκB-dependent luminescence was determined as relative light units (RLU) using the microplate reader Spark® (Tecan).

MDA-MB-231 = assay: Cell cycle studies (PI-DNA flow cytometry) in MDA-MB-231; format: cell-based, human; details: MDA-MB-231, 20 nM, 72 h
Description: To investigate cell cycle progression in the presence of compound (1s) or paclitaxel (Santa Cruz Biotechnology; #sc-201439), we quantified the DNA content in the cell. On day 1, the cells were seeded in 1 mL into a 24 well plate (Greiner; #662160). On day 2, MDA-MB-468-UnaG were pre-treated either without (normoxia) or with 100 µM CoCl2 (hypoxia) (Sigma-Aldrich; #C8661) for 24 h before compounds were applied. On day 2 for MDA-MB-231 or on day 3 for MDA-MB-468-UnaG, paclitaxel was applied at the concentrations 15 nM, 37 nM, and 100 nM, and compound (1s) was applied at concentrations ranging from 2 nM to 1000 nM. […] The fluorescence signal resulting from PI-DNA complex formation was recorded using the flow cytometer CytoFlex (Beckmann Coulter, Krefeld, Germany). The cell cycle phase population was determined based on the DNA content in a set of chromosomes (n) in a cell using the integrated software CytExpert (Beckmann Coulter): sub-G0/G1 (<2n), G0/G1 (2n), S (>2n, <4n), G2/M (4n) or hyperploid cells (>4n) (see Figure S10).
FSC-A and FSC-height (H). (c) To evaluate cell cycles phases, the range of analyzed cells was deter-mined within the (b) single cells by excluding recorded events that extend the proportional distri-bution of the DNA chromosome set (n): < 2n; > 4n. […]

HIF-1α = assay: HIF inhibition, HIF-mediated UnaG reporter expression; format: cell-based; details: for decrease of HIF-1α-mediated UnaG expression: normoxia, MDA-MB-468-UnaG
Description: The HIF activity after treatment with compound (1s) or with the commercially available NFκB inhibitor BAY 11-7085 ((Hycultec, Beutelsbach, Germany; #HY-10257-10),) for 24 h was determined using the UnaG-reporter gene cell line MDA-MB-468-UnaG. On day 1, 1.5 × 10^4 MDA-MB-468-UnaG cells were seeded into a black 96 well plate (Greiner; #655090). […] HIF-mediated UnaG expression was recorded in z-stacked images using the CQ1 high-content imaging system (Yokogawa, Wehr, Germany; 100× g magnification). Beforehand, the UnaG fluorescence intensity was determined in UnaG-expressing cell clones (Figure S5).
Figure 7 Compound (1s) decreases HIF-dependent gene transcription. MDA-MB-468-UnaG cells were pre-treated for 1 h without (CTRL) or with compound (1s) or BAY 11-7085 (BAY) before being grown (a,b) in the absence (normoxia; CTRL) or (c,d) presence of 100 µM CoCl2 (hypoxia) for another 24 h. (a,c) Representative fluorescence images. Scale bar: 200 µm (b,d) Total fluorescence intensity of HIF-mediated UnaG was normalized to the CTRL group. Statistical difference was calculated with one-way ANOVA (b) vs. CTRL (normoxia) (ns = not significant, * p < 0.05). (d) vs. CTRL (hypoxia) (# p < 0.05); vs. CoCl2 (* p < 0.05, ** p < 0.01, *** p < 0.001). (b,d) Columns represent the mean ± SEM (n = 3).

| Compound | IC50 (NFκB) [nM] | cell cycle phase population (MDA-MB-231) | reduction of HIF-1α-activity (HIF-1α; CoCl2-simulated hypoxia (100 µM), 20 nM, 24 h) [%] | decrease of HIF-1α-mediated UnaG expression (HIF-1α; 10 nM, 24 h) [%] | decrease of HIF-1α-mediated UnaG expression (HIF-1α; 20 nM, 24 h) [%] | CoCl2-induced increase in HIF-1α-activity (HIF-1α; pre-treatment before CoCl2-simulated hypoxia, 6 µM BAY 11-7085, 2, 5, 10, 20 nM (1s)) |
| --- | --- | --- | --- | --- | --- | --- |
| COc1ccc2c3c(c4cc(OC)c(OC)cc4c2c1)CN1CCCC1C3O (stereo not drawn) [Compound (1), O-methyltylophorinidine] | 3.7 ± 1 | Cell populations increased in the S-phase as well as in the G2/M phase |  |  |  |  |
| COc1ccc2c3c(c4cc(OC)c(OC)cc4c2c1)CN1CCCC1C3O (stereo not drawn) [Compound (1s), O-methyltylophorinidine] |  |  | 14 ± 4 | 11 ± 3 | 13 ± 4 | blocked |
